PubChem BioAssay (NCI)
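How tested: cells in 96-well plates exposed to compound for 48 hours at five concentrations. GI50 is the concentration that inhibits growth by half. TGI marks complete inhibition of growth.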

Legend:
Experiment in all cases: NCI-60 cell line screen, 48 h
[1] = tested on: MOLT-4 leukemia
[2] = tested on: CAKI-1 renal
[3] = tested on: HOP-92 NSCLC
[4] = tested on: CCRF-CEM leukemia
[5] = tested on: NCI-H460 lung
[6] = tested on: DU-145 prostate
[7] = tested on: SR leukemia
[8] = tested on: RXF 393 renal
[9] = tested on: TK-10 renal
[10] = tested on: OVCAR-4 ovarian

Molecule `CN1CCN(c2ccc(Nc3cc(-c4cccc(-n5ccc6cc(C7CC7)cc(F)c6c5=O)c4CO)cn(C)c3=O)nc2)CC1` has a GI50 [1] of 3.73 µM, a TGI [1] of 19.1 µM and a GI50 [2] of 2.66 µM. The TGI [2] was 10.8 µM, the GI50 [3] was 1.89 µM and the TGI [3] was 8.42 µM. It also gave a GI50 [4] of 2.19 µM, a TGI [4] of 7.73 µM and a GI50 [5] of 3.83 µM. The TGI [5] was 15.7 µM, the GI50 [6] was 7.9 µM and the TGI [6] was 22 µM. For the same molecule, the GI50 [7] was 1.79 µM, the TGI [7] was 5.27 µM and the GI50 [8] was 1.9 µM. It also gave a TGI [8] of 5.37 µM, a GI50 [9] of 3.69 µM and a TGI [9] of 14.3 µM.
Molecule `COC(=O)c1ccc2c(c1)C(=O)c1c-2n(CCCN=[N+]=[N-])c(=O)c2cc(OC)c(OC)cc12` has a GI50 [1] of 3.82 µM, a TGI [1] of 19.1 µM and a GI50 [2] of over 100 µM. The TGI [2] was over 100 µM, the GI50 [4] was over 100 µM and the TGI [4] was over 100 µM. The GI50 [10] was over 100 µM, the TGI [10] was over 100 µM and the GI50 [5] was over 100 µM. The TGI [5] was over 100 µM, the GI50 [6] was over 100 µM and the TGI [6] was over 100 µM. The GI50 [7] was 3.57 µM, the TGI [7] was 56 µM and the GI50 [8] was over 100 µM. It also gave a TGI [8] of over 100 µM, a GI50 [9] of over 100 µM and a TGI [9] of over 100 µM.
`C/C(CC(=O)Nc1ccc(C)c(C)c1)=N\N(c1ccccc1)c1ccccc1` gave a TGI [1] of over 100 µM, a TGI [2] of over 100 µM and a TGI [3] of over 100 µM. For the same molecule, the TGI [4] was 64.4 µM, the TGI [10] was over 100 µM and the TGI [5] was over 100 µM. It also gave a TGI [7] of 51.2 µM, a TGI [8] of over 100 µM and a TGI [9] of over 100 µM.
`C#CC1/C(=C\C(=O)OC)CCCC1O` (stereo not given) was tested, and the TGI [1] was over 100 µM, the TGI [2] was over 100 µM and the TGI [3] was over 100 µM. It also gave a TGI [4] of over 100 µM, a TGI [10] of over 100 µM and a TGI [5] of over 100 µM. It also gave a TGI [7] of over 100 µM, a TGI [8] of over 100 µM and a TGI [9] of over 100 µM.
Work on `COc1cc(C(=O)N2CCN(C(=O)c3cc(OC)c(OC)c(OC)c3)C2=S)cc(OC)c1OC` yielded a GI50 [1] of 23.5 µM, a TGI [1] of 58.4 µM and a GI50 [2] of 12.3 µM. For the same molecule, the TGI [2] was 24.7 µM, the GI50 [3] was 16.1 µM and the TGI [3] was 34.3 µM. The GI50 [4] was 12.2 µM, the TGI [4] was 34.1 µM and the GI50 [10] was 16.9 µM. It also gave a TGI [10] of 50.1 µM, a GI50 [5] of 27.2 µM and a TGI [5] of 73.6 µM. The GI50 [6] was 13.6 µM, the TGI [6] was 27.7 µM and the GI50 [8] was 14.3 µM. It also gave a TGI [8] of 28.1 µM, a GI50 [9] of 17 µM and a TGI [9] of 37.3 µM.
Molecule `CN1C(=O)c2ccccc2NC(=O)C12O[C@@H]2c1ccccc1` (stereo not given in full) has a TGI [1] of over 100 µM, a TGI [2] of over 100 µM and a TGI [3] of over 100 µM. It also gave a TGI [4] of over 100 µM, a TGI [10] of over 100 µM and a TGI [5] of over 100 µM. For the same molecule, the TGI [6] was over 100 µM, the TGI [7] was over 100 µM and the TGI [9] was over 100 µM.
For `CC(=O)Nc1ccc(-c2csc(Nc3cccc(-c4csc(C)n4)c3)n2)cc1`, the TGI [1] was over 50 µM, the GI50 [2] was 1.61 µM and the TGI [2] was 8.75 µM. The TGI [3] was over 23.1 µM, the GI50 [4] was over 50 µM and the TGI [4] was over 50 µM. The GI50 [5] was 1 µM, the TGI [5] was over 50 µM and the GI50 [6] was 3.85 µM. It also gave a TGI [6] of 22.7 µM, a GI50 [7] of 0.787 µM and a TGI [7] of over 50 µM. It also gave a GI50 [8] of 2.01 µM, a TGI [8] of over 12.9 µM and a GI50 [9] of 6.03 µM. For the same molecule, the TGI [9] was over 50 µM.
`N#Cc1nn(-c2cc(=O)[nH]c3ccc(Cl)cc23)c(N)c1C#N` was tested, and the GI50 [1] was over 100 µM, the TGI [1] was over 100 µM and the GI50 [2] was over 100 µM. For the same molecule, the TGI [2] was over 100 µM, the GI50 [3] was 10.2 µM and the TGI [3] was over 100 µM. It also gave a GI50 [4] of over 100 µM, a TGI [4] of over 100 µM and a GI50 [10] of 8.63 µM. For the same molecule, the TGI [10] was over 100 µM, the GI50 [5] was over 100 µM and the TGI [5] was over 100 µM. It also gave a GI50 [6] of over 100 µM, a TGI [6] of over 100 µM and a GI50 [7] of over 100 µM. The TGI [7] was over 100 µM, the GI50 [9] was over 100 µM and the TGI [9] was over 100 µM.
